Assay results taken from paper doi:10.1101/2023.08.01.551199v1, “Activation of cannabinoid CB2 receptors by (−)-cannabichromene but not (+)-cannabichromene” (biorxiv, 2023).

Columns and labels:
Type in all cases: cell-based
human TRPA1 [1] = target: T1, human TRPA1 (Homo sapiens, UniProt O75762); assay: fluorescent intracellular calcium assay (FLIPR Ca5), HEK293-TRPA1 cells
T1 construct: tetracycline-induced expression in HEK293 FlpIn/T-REx cells
Excerpt: fluorescent intracellular calcium assay (FLIPR Ca5), HEK293-TRPA1 cells on human TRPA1 | In HEK293-TRPA1 cells cinnamaldehyde produced an increase in Ca5 fluorescence

human TRPA1 [2] = target: T1, human TRPA1; assay: as above; settings: agonist; 37 °C, pH 7.4, 0.1% DMSO, 1.25 mM probenecid
human CB2 = target: T2, human CB2 (Homo sapiens, UniProt P34972); assay: fluorescent membrane potential assay (MPA Blue), AtT20-CB2 cells; settings: 37 °C, pH 7.4, 0.1% DMSO; no activation up to the highest concentration tested
T2 construct: gene CNR2; stably expressed in AtT20 FlpIn cells
T2 sequence (P34972 whole entry): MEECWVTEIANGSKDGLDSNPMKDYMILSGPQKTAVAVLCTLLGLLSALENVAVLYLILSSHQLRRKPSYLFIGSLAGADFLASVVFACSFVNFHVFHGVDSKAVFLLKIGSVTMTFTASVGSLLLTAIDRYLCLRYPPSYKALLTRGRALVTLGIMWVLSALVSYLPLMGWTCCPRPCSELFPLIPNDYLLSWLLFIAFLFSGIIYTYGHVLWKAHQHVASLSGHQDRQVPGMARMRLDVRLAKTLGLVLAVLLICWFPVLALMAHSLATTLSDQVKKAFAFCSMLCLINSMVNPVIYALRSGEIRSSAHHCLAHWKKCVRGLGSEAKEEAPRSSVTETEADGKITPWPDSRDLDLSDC

T1 sequence (O75762 whole entry): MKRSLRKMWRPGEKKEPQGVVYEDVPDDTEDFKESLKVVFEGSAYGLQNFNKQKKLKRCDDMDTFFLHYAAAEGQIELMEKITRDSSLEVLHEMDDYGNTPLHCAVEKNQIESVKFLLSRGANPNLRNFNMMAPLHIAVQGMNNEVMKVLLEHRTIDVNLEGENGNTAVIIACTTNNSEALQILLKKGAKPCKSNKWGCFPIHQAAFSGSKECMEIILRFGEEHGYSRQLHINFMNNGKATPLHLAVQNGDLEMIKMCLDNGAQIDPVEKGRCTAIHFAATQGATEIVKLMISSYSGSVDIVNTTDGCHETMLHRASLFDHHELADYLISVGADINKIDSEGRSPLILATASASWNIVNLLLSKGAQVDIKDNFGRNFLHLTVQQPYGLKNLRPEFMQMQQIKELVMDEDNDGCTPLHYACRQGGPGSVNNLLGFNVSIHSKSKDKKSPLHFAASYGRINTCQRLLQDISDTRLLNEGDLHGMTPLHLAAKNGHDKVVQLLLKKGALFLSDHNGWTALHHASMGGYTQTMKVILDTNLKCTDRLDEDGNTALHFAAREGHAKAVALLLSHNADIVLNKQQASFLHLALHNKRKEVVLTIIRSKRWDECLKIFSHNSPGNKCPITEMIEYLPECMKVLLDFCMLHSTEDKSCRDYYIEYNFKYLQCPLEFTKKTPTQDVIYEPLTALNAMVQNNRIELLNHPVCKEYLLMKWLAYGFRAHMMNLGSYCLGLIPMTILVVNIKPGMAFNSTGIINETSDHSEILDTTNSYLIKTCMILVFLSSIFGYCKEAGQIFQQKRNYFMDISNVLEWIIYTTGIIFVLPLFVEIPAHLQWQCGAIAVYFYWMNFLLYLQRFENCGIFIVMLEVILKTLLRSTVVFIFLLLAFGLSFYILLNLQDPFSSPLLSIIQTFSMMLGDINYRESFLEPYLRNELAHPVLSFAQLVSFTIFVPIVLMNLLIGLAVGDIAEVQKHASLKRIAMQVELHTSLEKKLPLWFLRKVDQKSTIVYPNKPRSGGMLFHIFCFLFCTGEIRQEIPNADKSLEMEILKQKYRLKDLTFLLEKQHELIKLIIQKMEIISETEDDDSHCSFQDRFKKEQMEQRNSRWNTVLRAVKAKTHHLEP

## O=CC=Cc1ccccc1 [cinnamaldehyde]
Human TRPA1 [1]
  EC50: 11 µM

## CCCCCc1cc(O)c2c(c1)OC(C)(CCC=C(C)C)C=C2 (single isomer, unassigned; (+)) [(+)-CBC]
Human TRPA1 [2]
  increase in fluorescence at 30 μM: 159 ± 27%
Human CB2
  EC50: > 30 µM
